In patent US11999727B2 (Tango Therapeutics, Inc., priority 2020, dated 2024):
Like-named read-outs stand apart in the source and are kept apart here.

Assays:
[1] = biological target: T1, PRMT5 (Homo sapiens, UniProt O14744); experiment: PRMT5 biochemical IC50 assay with MTA as cofactor; conditions: PRMT5, MTA as cofactor; read-out: MTA IC50
T1 construct: purchased Viva (custom protein)

[2] = test system: HAP1 MTAP-intact cell line; experiment: SDMA in-cell western assay, HAP1 MTAP-intact; type: cell-based; conditions: Homo sapiens
Method in brief: (§1)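 MTAP-null vs endogenous-MTAP HAP1 isogenic cells; in-cell western SDMA readout; IC50 per line.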

[3] = biological target: T1, PRMT5; experiment: PRMT5 biochemical IC50 assay with no cofactor; conditions: PRMT5, no cofactor
From the text: Table 1 indicates IC50 values (μM) against PRMT5 for exemplary compounds in the presence of SAM as cofactor, with no cofactor, and with MTA as cofactor, respectively (columns 4-6). […] Ki values can be calculated from the IC50 values as described in the Examples section. As detailed in the Examples section, for the assay performed in the presence of SAM, IC50=Ki×1.5 (Ki=IC50/1.5).

[4] = test system: HAP1 MTAP-deleted cell line; experiment: SDMA in-cell western assay, HAP1 MTAP-deleted; type: cell-based; conditions: for MTAP intact/deleted ratio: IC50 ratio HAP1 MTAP-intact / HAP1 MTAP-deleted
Method in brief: as §1

[5] = biological target: T1, PRMT5; experiment: PRMT5 biochemical IC50 assay with SAM as cofactor; conditions: PRMT5, SAM as cofactor; read-out: SAM IC50
[6] = test system: HAP1 MTAP-deleted cell line; experiment: Viability assay, MTAP-deleted cell line; type: cell-based; conditions: Homo sapiens, read-out: HAP1 MTAP deleted viability
From the text: Table 1 additionally indicates IC50 values in a viability assay for the MTAP-deleted cell line (column 10), indicating the effect of treatment with compound on cell survival.

[7] = HAP1, SDMA in-cell western, HAP1 MTAP-intact, read-out: MTAP HAP1 intact IC50
[8] = Homo sapiens, HAP1, SDMA in-cell western, HAP1 MTAP-deleted, read-out: HAP1 MTAP deleted IC50
[9] = Homo sapiens, HAP1, SDMA in-cell western, HAP1 MTAP-deleted, read-out: HAP 1 MTAP deleted IC50
[10] = read-out: No Cofactor/ rel IC50

T1 sequence (O14744 whole entry): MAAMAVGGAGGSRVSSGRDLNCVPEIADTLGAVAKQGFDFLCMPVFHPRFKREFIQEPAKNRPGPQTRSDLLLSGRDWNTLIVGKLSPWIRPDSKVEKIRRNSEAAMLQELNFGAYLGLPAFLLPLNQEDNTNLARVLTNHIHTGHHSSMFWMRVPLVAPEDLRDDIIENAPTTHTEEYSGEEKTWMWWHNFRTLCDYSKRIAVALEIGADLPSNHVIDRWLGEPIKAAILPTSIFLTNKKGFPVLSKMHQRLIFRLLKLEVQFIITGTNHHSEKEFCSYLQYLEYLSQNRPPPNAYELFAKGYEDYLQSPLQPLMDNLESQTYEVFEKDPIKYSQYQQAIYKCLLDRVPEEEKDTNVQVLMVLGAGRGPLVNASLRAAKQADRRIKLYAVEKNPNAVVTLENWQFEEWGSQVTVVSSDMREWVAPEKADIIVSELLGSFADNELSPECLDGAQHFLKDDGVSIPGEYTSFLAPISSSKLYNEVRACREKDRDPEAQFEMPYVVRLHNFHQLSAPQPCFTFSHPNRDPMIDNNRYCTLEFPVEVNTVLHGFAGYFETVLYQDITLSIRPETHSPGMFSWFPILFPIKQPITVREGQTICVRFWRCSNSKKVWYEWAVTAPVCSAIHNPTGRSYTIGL
T1 sequence (Q9BQA1 whole entry partner): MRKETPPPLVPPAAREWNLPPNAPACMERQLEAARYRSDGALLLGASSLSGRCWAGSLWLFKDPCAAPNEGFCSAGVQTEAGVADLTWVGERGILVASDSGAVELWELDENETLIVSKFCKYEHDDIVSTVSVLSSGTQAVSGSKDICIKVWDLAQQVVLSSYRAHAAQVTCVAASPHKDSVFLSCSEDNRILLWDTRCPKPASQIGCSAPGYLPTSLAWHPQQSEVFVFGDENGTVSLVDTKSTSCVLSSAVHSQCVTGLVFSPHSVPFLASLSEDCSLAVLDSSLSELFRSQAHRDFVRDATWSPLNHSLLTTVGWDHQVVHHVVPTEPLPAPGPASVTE

Row | SMILES | IC50 [1] | IC50 [2, 7] | IC50 ([3]; read-out: No Cofactor/rel IC50) | IC50 [4, 8] | IC50 [5] | IC50 [4, 9] | IC50 [3, 10] | IC50 ([4]; SDMA in-cell western, HAP1 MTAP-deleted, read-out: HAP1 MTAP deleted IC50) | MTAP intact/deleted ratio ([4]; SDMA in-cell western) | IC50 ([6]; HAP1, viability assay, MTAP-deleted cell line) | IC50 ([2]; HAP1, read-out: MTAP HAP1 intact IC50) | IC50 ([4]; Homo sapiens, HAP1, read-out: HAP1 MTAP deleted IC50) | IC50 ([6]; HAP1, viability IC50, MTAP-deleted cell line) | IC50 ([6]; HAP1, viability, HAP1 MTAP-deleted cell line)
1 | Cc1cc(NC(=O)C(=O)N2C[C@H](C)CC[C@H]2C2CCCN(C)C2)cnc1N (mixture of isomers) [Compound 832, N-(6-amino-5-methyl-3-pyridyl)-2-[(2R,5S)-5-methyl-2-(1-methyl-3-piperidyl)-1-piperidyl]-2-oxo-acetamide] | 50 to 500 nM | > 1000 nM | > 500 nM | > 1000 nM | > 500 nM |  |  |  | C (an IC50 ratio of less than 3 fold) |  |  |  |  | 
2 | Cc1cc(NC(=O)C(=O)N2C[C@H](C)CC[C@H]2c2ccc(NC3COC3)cc2)cnc1N (racemic) [Compound 1048] | 50 to 500 nM | 100 to 1000 nM | 50 to 500 nM |  | 50 to 500 nM | < 100 nM |  |  | B (an IC50 ratio greater than or equal to 3 fold but lower than 10 fold) |  |  |  |  | 
3 | Cc1cc(NC(=O)C(=O)N2C[C@H](C)CC[C@H]2c2ccc(CC(F)(F)F)cc2)cnc1N (racemic) [Compound 1056] | < 50 nM | 100 to 1000 nM | 50 to 500 nM |  | 50 to 500 nM | 100 to 1000 nM |  |  | C (an IC50 ratio of less than 3 fold) |  |  |  |  | 
4 | Cc1cncc(NC(=O)C(=O)N2CCCC[C@H]2c2cccc(C)c2)c1 (single isomer, unassigned) [Compound 4] | 50 to 500 nM | > 1000 nM |  |  | > 500 nM | > 1000 nM | > 500 nM |  | C (an IC50 ratio of less than 3 fold) |  |  |  |  | 
5 | COc1ncc(NC(=O)C(=O)N2C[C@H](C)CC[C@H]2c2cccs2)cc1C(N)=O (single isomer, unassigned) [Compound 310] | > 500 nM | > 1000 nM | > 500 nM | > 1000 nM | > 500 nM |  |  |  | C (an IC50 ratio of less than 3 fold) |  |  |  |  | 
6 | CNc1cccc([C@H]2CCCCN2C(=O)C(=O)Nc2cncc(C(N)=O)c2)c1 (single isomer, unassigned) [Compound 316] | 50 to 500 nM | > 1000 nM | > 500 nM | > 1000 nM | > 500 nM |  |  |  | C (an IC50 ratio of less than 3 fold) |  |  |  |  | 
7 | CNc1cccc([C@H]2CC[C@H](C)CN2C(=O)C(=O)Nc2cncc(C(N)=O)c2)c1 (single isomer, unassigned) [Compound 321] | > 500 nM | > 1000 nM | > 500 nM | > 1000 nM | > 500 nM |  |  |  | C (an IC50 ratio of less than 3 fold) |  |  |  |  | 
8 | COc1ncc(NC(=O)C(=O)N2C[C@@H](C)CC[C@H]2c2ccccc2)cc1C(N)=O (single isomer, unassigned) [Compound 322] | > 500 nM |  | > 500 nM |  | > 500 nM |  |  |  | B (an IC50 ratio greater than or equal to 3 fold but lower than 10 fold) |  | > 1000 nM | > 1000 nM |  | 
9 | CC(=O)N1CCC(c2cccc([C@@H]3CC[C@@H](C)CN3C(=O)C(=O)Nc3cnc(N)c(C)c3)c2)CC1 (single isomer, unassigned) [Compound 331] | > 500 nM | > 1000 nM | > 500 nM | > 1000 nM | > 500 nM |  |  |  | C (an IC50 ratio of less than 3 fold) |  |  |  |  | 
10 | CC(=O)N1CCC(c2cccc([C@H]3CC[C@H](C)CN3C(=O)C(=O)Nc3cncc(C(N)=O)c3)c2)CC1 (single isomer, unassigned) [Compound 332] | > 500 nM | > 1000 nM | > 500 nM | > 1000 nM | > 500 nM |  |  |  | C (an IC50 ratio of less than 3 fold) |  |  |  |  | 
11 | Cc1cc(NC(=O)C(=O)N2CCCC[C@@H]2C2CCCC2)cnc1N (single isomer, unassigned) [Compound 336] | > 500 nM | > 1000 nM | > 500 nM | > 1000 nM | > 500 nM |  |  |  | C (an IC50 ratio of less than 3 fold) |  |  |  |  | 
12 | COc1ncc(NC(=O)C(=O)N2C[C@@H](C)CC[C@H]2C2CCCCC2)cc1C(N)=O (single isomer, unassigned) [Compound 371] | > 500 nM | > 1000 nM | > 500 nM | > 1000 nM | > 500 nM |  |  |  | C (an IC50 ratio of less than 3 fold) |  |  |  |  | 
13 | C[C@@H]1CC[C@@H](c2csc3ccccc23)N(C(=O)C(=O)Nc2cncc(C(N)=O)c2)C1 (single isomer, unassigned) [Compound 463] | < 50 nM | > 1000 nM | 50 to 500 nM | 100 to 1000 nM | 50 to 500 nM |  |  |  | A (an IC50 ratio greater than or equal to 10 fold) |  |  |  |  | 
14 | C[C@@H]1CC[C@@H](c2ccc3c(c2)OCCN3)N(C(=O)C(=O)Nc2cncc(C(N)=O)c2)C1 (single isomer, unassigned) [Compound 605] |  | > 1000 nM | > 500 nM |  | > 500 nM | > 1000 nM |  |  | B (an IC50 ratio greater than or equal to 3 fold but lower than 10 fold) |  |  |  | > 10 µM | 
15 | C[C@H]1CC[C@H](c2cc(F)c(F)c(Cl)c2)N(C(=O)C(=O)Nc2cncc(C(N)=O)c2)C1 (single isomer, unassigned) [Compound 846] | > 500 nM | > 1000 nM | > 500 nM | > 1000 nM | > 500 nM |  |  |  | C (an IC50 ratio of less than 3 fold) |  |  |  |  | 

Continued, in another order:

Row | IC50 [1] | IC50 [2, 7] | IC50 ([3]; read-out: No Cofactor/rel IC50) | IC50 [4, 8] | IC50 [5] | IC50 [4, 9] | IC50 [3, 10] | IC50 ([4]; SDMA in-cell western, HAP1 MTAP-deleted, read-out: HAP1 MTAP deleted IC50) | SMILES | MTAP intact/deleted ratio ([4]; SDMA in-cell western) | IC50 ([6]; HAP1, viability assay, MTAP-deleted cell line) | IC50 ([2]; HAP1, read-out: MTAP HAP1 intact IC50) | IC50 ([4]; Homo sapiens, HAP1, read-out: HAP1 MTAP deleted IC50) | IC50 ([6]; HAP1, viability IC50, MTAP-deleted cell line) | IC50 ([6]; HAP1, viability, HAP1 MTAP-deleted cell line)
16 | > 500 nM | > 1000 nM |  |  |  | > 1000 nM | > 500 nM |  | Cc1cncc(NC(=O)C(=O)N2C[C@@H](C)CC[C@@H]2c2cccc(F)c2)c1 (single isomer, unassigned) [Compound 77] | C (an IC50 ratio of less than 3 fold) | > 10 µM |  |  |  | 
17 | > 500 nM | > 1000 nM | > 500 nM | > 1000 nM | > 500 nM |  |  |  | Cc1cc([C@@H]2CC[C@@H](C)CN2C(=O)C(=O)Nc2cncc(C(N)=O)c2)ccc1F (single isomer, unassigned) [Compound 307] | C (an IC50 ratio of less than 3 fold) |  |  |  |  | 
18 | > 500 nM | > 1000 nM | > 500 nM |  | > 500 nM |  |  | > 1000 nM | COc1ncc(NC(=O)C(=O)N2CCCCC2C2CCCCC2)cc1C(N)=O (single isomer, unassigned) [Compound 317, 5-(2-(2-cyclohexylpiperidin-1-yl)-2-oxoacetamido)-2-methoxynicotinamide] | C (an IC50 ratio of less than 3 fold) |  |  |  |  | 
19 | > 500 nM | > 1000 nM | > 500 nM | > 1000 nM | > 500 nM |  |  |  | Cc1cc([C@H]2CC[C@H](C)CN2C(=O)C(=O)Nc2cncc(C(N)=O)c2)cc(C)c1O (single isomer, unassigned) [Compound 326] | C (an IC50 ratio of less than 3 fold) |  |  |  |  | 
20 | > 500 nM | > 1000 nM | > 500 nM | > 1000 nM | > 500 nM |  |  |  | Cc1cc(NC(=O)C(=O)N2C[C@H](C)C[C@H](C)[C@H]2c2ccccc2)cnc1N (single isomer, unassigned) [Compound 343] | C (an IC50 ratio of less than 3 fold) |  |  |  |  | 
21 | > 500 nM | > 1000 nM | > 500 nM |  | > 500 nM | > 1000 nM |  |  | COc1ncc(NC(=O)C(=O)N2C[C@@H](C)C(F)(F)C[C@@H]2c2ccc(F)cc2)cc1C(N)=O (single isomer, unassigned) [Compound 1047] | C (an IC50 ratio of less than 3 fold) |  |  |  |  | 
22 | > 500 nM | > 1000 nM | > 500 nM |  | > 500 nM | > 1000 nM |  |  | Cc1cc(NC(=O)C(=O)N2C[C@H](C)CC[C@H]2c2cc[nH]n2)cnc1N (single isomer, unassigned) [Compound 1050] | C (an IC50 ratio of less than 3 fold) |  |  |  |  | 
23 |  | 100 to 1000 nM |  |  | 50 to 500 nM | < 100 nM | < 50 nM |  | CCc1cc(NC(=O)C(=O)N2C[C@@H](C)CC[C@@H]2c2cccc([C@H]3CCCN(C)C3)c2)cnc1N (single isomer, unassigned) [Compound 1285] | A (an IC50 ratio greater than or equal to 10 fold) |  |  |  |  | < 1 µM
